According to patent US5750538A, “Method of treating hypercholesterolemia and related disorders” (Novo Nordisk A/S, priority 1996, dated 1998):

Target: T1, squalene synthetase (Rattus norvegicus, UniProt Q02769)
T1 construct: Rat liver microsomal preparation; from tissue; host or cells: liver microsomes of male rats (100,000 x g pellet)
T1 sequence (Q02769 1-416): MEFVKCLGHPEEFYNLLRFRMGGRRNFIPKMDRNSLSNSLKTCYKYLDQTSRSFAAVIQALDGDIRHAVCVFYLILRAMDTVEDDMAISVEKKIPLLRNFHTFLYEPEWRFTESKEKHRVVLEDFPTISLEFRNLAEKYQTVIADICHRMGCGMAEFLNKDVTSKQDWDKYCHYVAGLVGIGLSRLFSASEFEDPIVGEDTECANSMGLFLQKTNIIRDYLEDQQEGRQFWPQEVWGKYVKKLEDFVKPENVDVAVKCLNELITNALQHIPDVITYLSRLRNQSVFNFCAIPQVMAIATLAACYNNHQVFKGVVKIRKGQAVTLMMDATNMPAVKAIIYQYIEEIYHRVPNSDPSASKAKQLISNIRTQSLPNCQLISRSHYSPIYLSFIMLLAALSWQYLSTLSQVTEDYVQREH
Experiment: Squalene synthetase inhibition assay in vitro (rat liver microsomal preparation, 3H-FPP)
Type: biochemical
Conditions: rat liver microsomal enzyme, 3H-FPP 10 μM final conc.; for SQUALENE SYNTHETASE INHIBITION % max: maximal inhibition; for IC50: 10 min incubation at 37° C.
Protocol: Squalene synthease inhibition assay in vitro
a) Rat liver microsomal preparation
Male rats weighing 200 to 300 g were decapitated and the liver removed and placed in 10 ml icecold 0.25M sucrose, 2 mM EDTA and 50 mM Tris, HCl buffer pH 7.4. The liver was homogenized in 3×volume buffer relative to weight using a glass teflon Potter-Elvehjem homogenizer set to 1000 rpm.
The homogenate was then centrifuged for 15 min. at 12,000×g at 4° C. The resultant supernatant was gently decanted into 10 ml ultracentrifuge vials and treated at 100,000×g for 60 min. at 4° C. The microsomal pellet was resuspended in a final volume of 1 ml icecold 0.1M phosphate buffer pH 7.4 per gram liver tissue by gentle homogenization in a glass Potter-Elvehjem at 800 rpm. Aliquots of 0.5 ml (approx. 20 mg/ml protein) was stored at -80° C. until further use in the squalene synthetase inhibition assay.
To begin the assay, 20 μl of the compound of this invention or vehicle solution is added to each 16×150 screw-cap culture tube on ice. Then 580 μl of N2 flushed assay buffer is pipetted into each tube. 100 μl of cofactor is next added to each tube, followed by 1 00 μl of a dilution of microsomal enzyme (approximately 80 μg protein). The tubes are preincubated for 10 min. at 37° C., and 200 μl of the ^3 H-FPP (200,000 dpm, 10 μM final conc.) is added to each tube at two second intervals. The tubes are then incubated for exactly 10 min., shaking at 150 oscillations per min. After the 10 min. incubation, the reaction is stopped by the addition of 1 ml of 15% KOH in ethanol, and the tubes are incubated for 30 min. in a 65° C. water bath for saponification of lipids and solubilization of proteins. The tubes are cooled on ice for five min. The samples are next extracted with 5 ml of petroleum ether by shaking for 10 min. at low speed on a metabolic shaker. Each lower aqueous layer is frozen in a dry ice/alcohol bath (2-propanol/methanol, 1:1), and each organic layer is poured into another set of 16 ×150 screw-top culture tubes containing 2 ml of deionized water. Each ether layer is washed by vortexing each tube for 5 sec. The aqueous layers are again frozen in the dry ice/alcohol bath, and the ether is poured into scintillation vials. 10 ml of AquaSol® is next added to each vial, and the vials are counted for 5 min. in a scintillation counter. Percent inhibitions are calculated from the counts obtained.

| Compound | SQUALENE SYNTHETASE INHIBITION % max | IC50 |
| --- | --- | --- |
| CCCCCCCSc1nsnc1C1CN2CCC1CC2 (centres unmarked) | 92% | 890 nM |
| c1ccc(CCCSc2nsnc2C2CN3CCC2CC3)cc1 (centres unmarked) | 89% | 900 nM |
| c1ccc(Oc2ccc(COc3nsnc3C3CN4CCC3CC4)cc2)cc1 (centres unmarked) | 83% | 300 nM |
| c1ccc(-c2ccc(COc3nsnc3C3CN4CCC3CC4)cc2)cc1 (centres unmarked) | 60% | 3900 nM |
| c1ccc(CCCSc2nsnc2[C@H]2CN3CC[C@@H]2C3)cc1 (relative stereo) | 55% | 12400 nM |
| c1ccc(CCCSc2nsnc2[C@H]2CN3CCC[C@@H]2C3)cc1 (single isomer, unassigned) | 72% | 5100 nM |
| c1ccc(CCCSc2nsnc2[C@@H]2CN3CCC[C@@H]2C3)cc1 (single isomer, unassigned) | 80% | 1100 nM |
